# Measurements from US10227295B2, “Selective histone deactylase 6 inhibitors” (H. LEE MOFFITT CANCER CENTER AND RESEARCH INSTITUTE, INC., priority 2013, dated 2019).
# Key:
# Type in all cases: cell-based
# [1] = system: acetyl-tubulin and acetyl-histone3 in human melanoma cell lines; test: Western blot of HDAC substrate acetylation in human melanoma cells; conditions: 24 hrs
# Procedure: Error bars represent standard deviation from triplicates. This figure is representative of three independent experiments. (F,G,H) Cell cycle analysis of melanoma WM164, WM983A and WM793 human melanoma cell lines stained with propidium iodide. Data is representative of three experiments with similar results.
# To confirm the selectivity of isotype specific HDACi, Western blot analysis was performed on the acetylation status of known HDAC substrates including histone H3 and H4, which are known Class I HDAC targets, and α-tubulin, a target for HDAC6. The doses required to impart the anti-proliferative effect coincided with that needed to increase acetylation of the respective HDAC substrates (FIG. 41F-41H). […] Conversely, HDAC6 selective inhibitors (HDAC6i) increase α-tubulin acetylation but not histone acetylation (FIG. 41F).
# [2] = system: NRAS and BRAF mutant human melanoma cell lines; test: Human melanoma cell proliferation MTS assay; conditions: 24 h, panel of human melanoma cell lines
# Procedure: Cell proliferation was evaluated using various pan- and isotype selective HDACi in a broad panel of human melanoma cell lines. Briefly, cells were plated at 10×10^3/well in a 96 well flat bottom plate. The following day, media was changed to that containing different concentrations of HDACi or matched DMSO vehicle concentrations diluted in complete medium done in triplicate, all with a final concentration of less than 0.1% DMSO. Cells were incubated for 24 hours at 37° C. and 5% CO2. […] All values were then normalized and expressed as a percentage of medium control growth.
# [3] = system: human melanoma cell lines; test: Cell cycle analysis by propidium iodide staining
# Procedure: Cells were treated with indicated doses of HDAC inhibitors or DMSO control and then trypsinized, washed, and rendered into a single cell suspension in 1 mL of DPBS. 4 mL ice cold 200 proof ethyl alcohol was added dropwise while vortexing to fix cells. Samples were washed and resuspended in 75% ethanol solution overnight. Then, cells were washed in PBS+0.1% Triton X-100 and counted. Equal numbers of cells were then stained in a solution containing 10 μg/mL RNAseA+1 μg/mL propidium iodide for 2 hours at room temperature. Data was then acquired using a FACSCaliber with at least 10,000 events collected. Cell cycle analysis was completed using ModFit LT (Verity Software House, Topsham, Me.).
smiles,measurement,setting,value
Nc1ccccc1NC(=O)c1ccc(CNc2nccc(-c3cccnc3)n2)cc1 [MGCD0103],acetylation of α-tubulin and histone,[1],unchanged
same,concentration range inhibiting proliferation (in words),[2],low micromolar range
same,cell cycle effects,[3],variable cell cycle effects
